Measured values published in patent US20240383913A1, “THIOPHENE RING COMPOUND, PREPARATION METHOD THEREFOR AND APPLICATION THEREOF” (CENTER FOR EXCELLENCE IN MOLECULAR CELL SCIENCE, CHINESE …, priority 2021, published 2024).

How the values were obtained:
[1] = molecular target: dopamine D2 receptors (Homo sapiens (Human), UniProt P14416); test: Dopamine D2 receptor Gαi1 BRET (G protein trimer dissociation); format: cell-based; conditions: D2 receptor, G protein pathway;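 note: transfected cells co-expressing D2 receptor, Gαi1-Rluc, Gβ3 and Gγ9-GFP, BRET with coelenterazine 400a at 5 µM read as G protein trimer dissociation, graded drug concentrations in duplicate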
Chain of dopamine D2 receptors (P14416 whole entry): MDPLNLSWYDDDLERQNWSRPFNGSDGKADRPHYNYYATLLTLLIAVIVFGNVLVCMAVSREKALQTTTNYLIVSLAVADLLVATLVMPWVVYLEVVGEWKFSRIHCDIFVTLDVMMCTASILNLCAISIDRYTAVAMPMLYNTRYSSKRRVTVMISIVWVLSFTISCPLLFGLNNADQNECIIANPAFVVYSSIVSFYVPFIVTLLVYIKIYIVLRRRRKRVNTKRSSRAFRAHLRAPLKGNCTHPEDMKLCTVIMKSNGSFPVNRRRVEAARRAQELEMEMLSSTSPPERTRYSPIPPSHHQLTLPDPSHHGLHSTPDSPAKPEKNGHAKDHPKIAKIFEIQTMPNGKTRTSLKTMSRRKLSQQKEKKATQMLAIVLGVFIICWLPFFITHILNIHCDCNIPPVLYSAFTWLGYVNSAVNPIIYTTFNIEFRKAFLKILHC
Experimental: To examine the downstream G protein signaling pathway mediated by dopamine D2 receptors, on the first day, a 6 cm culture dish was used for transfection with 1 μg of dopamine D2 receptors, 1 μg of Gαi1 containing a C-terminal seaweed luciferase (Gαi1-Rluc), 1 μg of Gβ3, 1 μg of Gγ9 containing C-terminal green fluorescent protein (Gγ9-GFP), and 16 μL of PEI. At the same time, in order to examine the downstream β-arrestin2 signaling pathway mediated by dopamine D2 receptors, on the first day, a 6 cm culture dish was used for transfection with 500 μg of dopamine D2 receptors containing C-terminal seaweed luciferase (D2-Rluc), 500 μg of G protein-coupled receptor kinase 2 (GRK2), 2500 μg of β-arrestin2 containing N-terminal green fluorescent protein (GFP2-ARRB2) mixed with 14 μL of PEI. The next day, the confluent cells of a 6 cm culture dish were digested and reseeded into a 96-well plate with 100 μL of culture medium added to each well. On the third day, the drugs were added for test. The 96-well plate was taken out from the cell incubator to decant the culture medium, 40 μL of the substrate coelenterazine 400a (final concentration of 5 μM) was added to each well, and then 20 μL of different drugs were added sequentially from left to right to ensure that the final concentration of the drug decreased gradually from bottom to top, with two replicates per treatment. Finally, the prepared samples were loaded on machine for test. The machine readout value reflected the recruitment of β-arrestin2 to the membrane or the dissociation of G protein trimer. The former indicated the degree of activation of the β-arrestin2 signaling pathway downstream of the dopamine D2 receptors, and the latter indicated the degree of activation of the G protein signaling pathway downstream of the dopamine D2 receptors.

[2] = test system: hyperlocomotion of the mice induced by MK801; test: Open field test, hyperlocomotion induced by MK801; format: in vivo, C57B6 male mice; conditions: for Distance (cm) travelled in 45 minutes: 0-45 minute interval after MK-801; for Distance travelled (cm): 5-minute bin
Experimental: Experimental method: The experimental animals were C57B6 male mice, n=8 in each group. This model used C57B6 mice as experimental animals. Hyperlocomotion of the mice in open field was induced by acute injection of a NMDA antagonist MK801. and modeled to test the inhibitory effect of different compounds on hyperkinesia phenotype induced by MK801. All mouse behavior experiments were carried out during the light period, and the whole process was recorded by the camera and locomotive data were tracked and analyzed by behavioral tracking software. The compounds were administered intraperitoneally. Immediately after the injection, the mice entered the open field and their movement trajectories were recorded by the camera. After 30 minutes, the mice received 0.2 mg/kg of MK801 by intraperitoneal injection and returned to the open field immediately after administration and the movement trajectories were further recorded for 120 minutes. The accumulative travelled distance of the mice was counted in a 5-minute bin. Data statistics were performed using Student-t-test analysis, *p<0.05, ** p<0.01, *** p<0.001, **** p<0.0001.

In the case of CN(C)C(=O)N[C@H]1CC[C@H](CCN2CCN3c4cccc5scc(c45)CC3C2)CC1 (single isomer, unassigned; (-)) [(−)-I-27], the “Gαi1 BRET (Emax %)” value [1] is reported as “(72.04%)”, the EC50 ([1]; read-out: Gαi1 BRET EC50) is reported as 3.76 nM and the “Inhibition of MK801-induced hyperlocomotion” value ([2]; 0.4/0.2/0.1 mg/kg intraperitoneally, MK801 0.2 mg/kg) is reported as “significantly inhibit hyperlocomotion”. For the same molecule, the “Distance (cm) travelled in 45 minutes” value ([2]; (−)-I-27 0.1 mg/kg i.p. + MK801 0.2 mg/kg) was 6882.3 cm, the “Distance travelled (cm)” value ([2]; (−)-I-27 0.1 mg/kg i.p. + MK801 0.2 mg/kg, 5 minutes after MK801) was 420.96 ± 66.32 cm and the “Distance travelled (cm)” value ([2]; (−)-I-27 0.1 mg/kg i.p. + MK801 0.2 mg/kg, 10 minutes after MK801) was 405.21 ± 55.18 cm. The “Distance travelled (cm)” value ([2]; (−)-I-27 0.1 mg/kg i.p. + MK801 0.2 mg/kg, 15 minutes after MK801) was 482.21 ± 74.21 cm, the “Distance travelled (cm)” value ([2]; (−)-I-27 0.1 mg/kg i.p. + MK801 0.2 mg/kg, 20 minutes after MK801) was 708.05 ± 61.74 cm and the “Distance travelled (cm)” value ([2]; (−)-I-27 0.1 mg/kg i.p. + MK801 0.2 mg/kg, 25 minutes after MK801) was 895.54 ± 92.18 cm. For the same molecule, the “Distance travelled (cm)” value ([2]; (−)-I-27 0.1 mg/kg i.p. + MK801 0.2 mg/kg, 30 minutes after MK801) was 1035.67 ± 122.77 cm, the “Distance travelled (cm)” value ([2]; (−)-I-27 0.1 mg/kg i.p. + MK801 0.2 mg/kg, 35 minutes after MK801) was 1075.2 ± 123.55 cm and the “Distance travelled (cm)” value ([2]; (−)-I-27 0.1 mg/kg i.p. + MK801 0.2 mg/kg, 45 minutes after MK801) was 942.97 ± 82.87 cm. The “Distance travelled (cm)” value ([2]; (−)-I-27 0.1 mg/kg i.p. + MK801 0.2 mg/kg, 50 minutes after MK801) was 985.86 ± 96.6 cm, the “Distance travelled (cm)” value ([2]; (−)-I-27 0.1 mg/kg i.p. + MK801 0.2 mg/kg, 55 minutes after MK801) was 925.44 ± 118.24 cm and the “Distance travelled (cm)” value ([2]; (−)-I-27 0.1 mg/kg i.p. + MK801 0.2 mg/kg, 60 minutes after MK801) was 937.96 ± 121.52 cm. For the same molecule, the “Distance travelled (cm)” value ([2]; (−)-I-27 0.1 mg/kg i.p. + MK801 0.2 mg/kg, 65 minutes after MK801) was 931.08 ± 108.91 cm, the “Distance travelled (cm)” value ([2]; (−)-I-27 0.1 mg/kg i.p. + MK801 0.2 mg/kg, 70 minutes after MK801) was 839.2 ± 104.29 cm and the “Distance travelled (cm)” value ([2]; (−)-I-27 0.1 mg/kg i.p. + MK801 0.2 mg/kg, 75 minutes after MK801) was 773.65 ± 117.99 cm. The “Distance travelled (cm)” value ([2]; (−)-I-27 0.1 mg/kg i.p. + MK801 0.2 mg/kg, 80 minutes after MK801) was 691.57 ± 121.79 cm, the “Distance travelled (cm)” value ([2]; (−)-I-27 0.1 mg/kg i.p. + MK801 0.2 mg/kg, 85 minutes after MK801) was 682.97 ± 115.06 cm and the “Distance travelled (cm)” value ([2]; (−)-I-27 0.1 mg/kg i.p. + MK801 0.2 mg/kg, 90 minutes after MK801) was 611.63 ± 112.71 cm. For the same molecule, the “Distance travelled (cm)” value ([2]; (−)-I-27 0.1 mg/kg i.p. + MK801 0.2 mg/kg, 95 minutes after MK801) was 432.95 ± 85.66 cm, the “Distance travelled (cm)” value ([2]; (−)-I-27 0.1 mg/kg i.p. + MK801 0.2 mg/kg, 100 minutes after MK801) was 405.27 ± 69.97 cm and the “Distance travelled (cm)” value ([2]; (−)-I-27 0.1 mg/kg i.p. + MK801 0.2 mg/kg, 105 minutes after MK801) was 391.87 ± 78.94 cm. For the same molecule, the “Distance travelled (cm)” value ([2]; (−)-I-27 0.1 mg/kg i.p. + MK801 0.2 mg/kg, 110 minutes after MK801) was 351.08 ± 112.22 cm, the “Distance travelled (cm)” value ([2]; (−)-I-27 0.1 mg/kg i.p. + MK801 0.2 mg/kg, 115 minutes after MK801) was 310.3 ± 83.61 cm and the “Distance travelled (cm)” value ([2]; (−)-I-27 0.1 mg/kg i.p. + MK801 0.2 mg/kg, 120 minutes after MK801) was 339.28 ± 95.35 cm. The “Distance travelled (cm)” value ([2]; (−)-I-27 0.1 mg/kg i.p., 0 minutes, before MK801) was 446.62 ± 49.69 cm, the “Distance travelled (cm)” value ([2]; (−)-I-27 0.1 mg/kg i.p., −5 minutes, before MK801) was 473.13 ± 38.54 cm and the “Distance travelled (cm)” value ([2]; (−)-I-27 0.1 mg/kg i.p., −10 minutes, before MK801) was 479.62 ± 34 cm. The “Distance travelled (cm)” value ([2]; (−)-I-27 0.1 mg/kg i.p., −15 minutes, before MK801) was 522.39 ± 41.17 cm, the “Distance travelled (cm)” value ([2]; (−)-I-27 0.1 mg/kg i.p., −20 minutes, before MK801) was 606.78 ± 43.01 cm and the “Distance travelled (cm)” value ([2]; (−)-I-27 0.1 mg/kg i.p., −25 minutes, before MK801) was 827.15 ± 76.34 cm. For the same molecule, the “Distance (cm) travelled in 45 minutes” value ([2]; (−)-I-27 0.2 mg/kg i.p. + MK801 0.2 mg/kg) was 5849.12 cm, the “Distance travelled (cm)” value ([2]; (−)-I-27 0.2 mg/kg i.p. + MK801 0.2 mg/kg, 5 minutes after MK801) was 527.23 ± 55.9 cm and the “Distance travelled (cm)” value ([2]; (−)-I-27 0.2 mg/kg i.p. + MK801 0.2 mg/kg, 10 minutes after MK801) was 353.73 ± 61.92 cm. The “Distance travelled (cm)” value ([2]; (−)-I-27 0.2 mg/kg i.p. + MK801 0.2 mg/kg, 15 minutes after MK801) was 415.6 ± 122.18 cm, the “Distance travelled (cm)” value ([2]; (−)-I-27 0.2 mg/kg i.p. + MK801 0.2 mg/kg, 20 minutes after MK801) was 555.77 ± 141.94 cm and the “Distance travelled (cm)” value ([2]; (−)-I-27 0.2 mg/kg i.p. + MK801 0.2 mg/kg, 25 minutes after MK801) was 775.2 ± 174.1 cm. The “Distance travelled (cm)” value ([2]; (−)-I-27 0.2 mg/kg i.p. + MK801 0.2 mg/kg, 30 minutes after MK801) was 815.56 ± 168.41 cm, the “Distance travelled (cm)” value ([2]; (−)-I-27 0.2 mg/kg i.p. + MK801 0.2 mg/kg, 35 minutes after MK801) was 844.11 ± 141.81 cm and the “Distance travelled (cm)” value ([2]; (−)-I-27 0.2 mg/kg i.p. + MK801 0.2 mg/kg, 40 minutes after MK801) was 771.62 ± 111.37| cm. The “Distance travelled (cm)” value ([2]; (−)-I-27 0.2 mg/kg i.p. + MK801 0.2 mg/kg, 45 minutes after MK801) was 790.3 ± 145.96 cm, the “Distance travelled (cm)” value ([2]; (−)-I-27 0.2 mg/kg i.p. + MK801 0.2 mg/kg, 50 minutes after MK801) was 741.75 ± 130.61 cm and the “Distance travelled (cm)” value ([2]; (−)-I-27 0.2 mg/kg i.p. + MK801 0.2 mg/kg, 55 minutes after MK801) was 547.84 ± 71.53 cm. For the same molecule, the “Distance travelled (cm)” value ([2]; (−)-I-27 0.2 mg/kg i.p. + MK801 0.2 mg/kg, 60 minutes after MK801) was 707.09 ± 102.86 cm, the “Distance travelled (cm)” value ([2]; (−)-I-27 0.2 mg/kg i.p. + MK801 0.2 mg/kg, 65 minutes after MK801) was 653.46 ± 142.7 cm and the “Distance travelled (cm)” value ([2]; (−)-I-27 0.2 mg/kg i.p. + MK801 0.2 mg/kg, 70 minutes after MK801) was 449.29 ± 121.61 cm. For the same molecule, the “Distance travelled (cm)” value ([2]; (−)-I-27 0.2 mg/kg i.p. + MK801 0.2 mg/kg, 75 minutes after MK801) was 564.58 ± 153.01 cm and the “Distance travelled (cm)” value ([2]; (−)-I-27 0.2 mg/kg i.p. + MK801 0.2 mg/kg, 80 minutes after MK801) was 501.93 ± 119.91 cm.
